Laboratory results from the NIST ThermoML archive (doi:10.1016/j.fluid.2013.05.013).
Numbers after ± are expanded uncertainties.

Details: 101.33 kPa, Liquid; for viscosity: Concentric cylinders viscometry; for mass density: Vibrating tube method

SMILES	viscosity (288.15 K) [mPa·s]	mass density (288.15 K) [kg/m3]	viscosity (298.15 K) [mPa·s]	mass density (298.15 K) [kg/m3]	viscosity (308.15 K) [mPa·s]	mass density (308.15 K) [kg/m3]	viscosity (318.15 K) [mPa·s]	mass density (318.15 K) [kg/m3]
CCn1cc[n+](C)c1.O=S(=O)([N-]S(=O)(=O)C(F)(F)F)C(F)(F)F	47.97 ± 0.29	1528.51 ± 0.7	32.51 ± 0.2	1518.38 ± 0.69	23.34 ± 0.14	1508.33 ± 0.68	17.46 ± 0.11	1498.36 ± 0.67
CCn1cc[n+](C)c1.O=S(=O)([O-])C(F)(F)F [1-ethyl-3-methylimidazolium trifluoromethanesulfonate]	67.66 ± 0.45	1392.47 ± 0.57	45.12 ± 0.28	1384.05 ± 0.56	31.89 ± 0.2	1375.68 ± 0.56	23.4 ± 0.14	1367.37 ± 0.55
